This note sets out measurements from article PMC7934871 (JCI Insight, 2021).

Non-standard residues stand in square brackets, D forms with d. No end group written: not given here. pY = N[C@@H](Cc1ccc(OP(=O)(O)O)cc1)C(=O)O

The subject of one experiment is KPC mouse PDAC cells. Kind of experiment: KPC mouse PDAC tumor model in C57BL/6 mice. In kind it is in vivo. The conditions noted are these: KPC s.c. in C57BL/6 mice, i.v. 1 mg/kg every other day for 18 days (combination 0.5 mg/kg each), n = 5. The protocol:
SD is shown. […] SD is shown.
Mouse care and experimental procedures were performed under pathogen-free conditions in accordance with established institutional guidance and approved IACUC protocols from Research Animal Care Committee of the City of Hope. For s.c. tumor challenge, 5 × 10^6 HCT116 cells were injected into NSG mice from The Jackson Laboratory or animal resource core facility at the City of Hope. After tumors reached an average size of 80~100 mm^3, mice were locally or intravenously treated with 1 mg/kg of PO- or PS-peptides (Anaspec) every day or every other day. Control animals were treated with the equal volume of HBSS (Invitrogen, Thermo Fisher Scientific). Tumor growth was measured by a digital caliper every other day. To study the effects of the modified peptides at protein and gene levels, mice were euthanized 4–6 weeks after tumor injection. B16 melanoma lung metastasis was performed by injecting 0.5 × 10^6 B16 cells into bloodstream of C57BL/6 mice (The Jackson Laboratory). One day after tumor challenge, mice were treated intravenously (retro-orbitally) with 1 mg/kg of PO- or PS-acet.-STAT3, PS-unacet.-STAT3, or PS-STAT3-K685R peptides every other day until the endpoint as indicated. […] Lungs were then analyzed for immune responses by immunostaining followed by confocal imaging. […] Tumor growth was measured by a digital caliper every other day. […]

For a further experiment, the target named is STAT3 (Homo sapiens, UniProt P40763). Kind of experiment: Binding of PS-Gp130 and STAT3, immunoprecipitation and Western blotting. More on the design: endogenous in cells. The conditions noted are these: 1 μM, 4 hours prior to harvest. The protocol: Figure 8 PS-Gp130 and PS-MYC blocking peptides efficiently internalize into tumor cells to exert their functions. (A) For 1 hour 1 μM of PS-conjugated MYC (PS-MYC) and Gp130 (PS-Gp130) were incubated with cancer cells. PS-scramble MYC (PS-SC-MYC) was used as a control for PS-MYC. The peptide uptake was visualized by confocal microscopy and quantified by flow cytometry. Data are representative of 3 independent experiments (n = 3). (B) Upper panel: The binding of PS-Gp130 and STAT3 was examined by immunoprecipitation and Western blotting. PO-Gp130 was used as a control. For 4 hours prior to harvest, 1 μM of peptide was incubated with cells. Lower panel: PS-Gp130 inhibits IL-6–induced phosphorylation of STAT3 and p44/42 but not EGF-mediated signaling. […] (C) Gene expression of STAT3 targets was examined by quantitative PCR after the treatment with 1 μM of PS-Gp130 with or without IL-6 stimulation as described above. […] (D) A total of 1 μM of PS-SC-MYC or PS-MYC was incubated with cells for 48 hours before the gene expression of MYC targets was examined by quantitative PCR. […]
Chain of STAT3 (P40763 whole entry, species assumed): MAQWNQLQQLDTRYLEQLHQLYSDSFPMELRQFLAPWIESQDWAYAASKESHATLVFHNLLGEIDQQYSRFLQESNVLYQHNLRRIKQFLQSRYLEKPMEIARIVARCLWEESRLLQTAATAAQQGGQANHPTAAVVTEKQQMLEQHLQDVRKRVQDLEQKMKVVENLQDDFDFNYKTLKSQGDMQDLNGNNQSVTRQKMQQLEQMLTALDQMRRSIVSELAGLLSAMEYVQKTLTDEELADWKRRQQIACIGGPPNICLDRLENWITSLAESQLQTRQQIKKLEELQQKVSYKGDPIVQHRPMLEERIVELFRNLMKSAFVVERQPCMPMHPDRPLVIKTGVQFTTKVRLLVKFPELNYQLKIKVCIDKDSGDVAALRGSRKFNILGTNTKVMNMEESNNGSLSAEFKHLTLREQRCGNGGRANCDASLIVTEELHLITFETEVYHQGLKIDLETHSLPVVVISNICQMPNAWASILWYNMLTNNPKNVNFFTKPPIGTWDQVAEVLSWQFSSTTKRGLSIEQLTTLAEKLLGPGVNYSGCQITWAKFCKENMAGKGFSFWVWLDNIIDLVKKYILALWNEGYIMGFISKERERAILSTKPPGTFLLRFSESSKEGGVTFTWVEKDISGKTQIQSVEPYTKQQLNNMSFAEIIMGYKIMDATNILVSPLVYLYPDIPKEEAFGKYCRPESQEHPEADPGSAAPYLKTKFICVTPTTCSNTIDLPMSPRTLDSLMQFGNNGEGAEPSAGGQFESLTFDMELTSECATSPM
Whole cell lysates or tissue homogenates were prepared by using RIPA lysis buffer (50 mM Tris at pH 7.4, 150 mM NaCl, 1 mM EDTA, 0.5% NP-40, 1 mM NaF, 15% glycerol, and 20 mM β-glycerophosphate). […] Protein amounts were determined by BCA using a Thermo Fisher Scientific kit. […]

Turning to “PS-Gp130: PS-conjugated Gp130 peptide (amino acids 901–910) with phospho-Tyr905 (MPKS[pY]LPQTV; also: phosphorothioate oligonucleotide conjugate; UniProt P40189 901-910, looked up, fragment)”, in the experiment on KPC mouse PDAC cells, the PDAC tumor growth result is listed as “significantly inhibited”. In addition, the “binding to STAT3” value with STAT3 is “strongly bound”.
